Reference: ChEMBL document CHEMBL1667741, “Rational design, synthesis, and characterization of highly fluorescent optical switches for high-contrast optical lock-in detection (OLID) imaging microscopy in living cells” (Bioorg Med Chem, 2011)

Columns and labels:
Assay type in all cases: ADME, cell-based
Settings in all cases: nih3t3; call rule not given here
[1] = Drug uptake in mouse NIH/3T3 cells assessed as fluorescent optical switching measured after continuous irradiation at 546 and 365 nm light by optical lock-in detection imaging microscopy
[2] = Drug uptake in mouse NIH/3T3 cells assessed as fluorescent optical switching measured after every 2 s with 100 ms pulse of 365 nm irradiation by optical lock-in detection imaging microscopy
[3] = Drug uptake in mouse NIH/3T3 cells assessed as fluorescent optical switching measured after continuous irradiation at 546 nm light by optical lock-in detection imaging microscopy; design: dose or concentration left out as unconfirmed

Drug uptake [1] | Drug uptake [2] | Drug uptake [3] | Structure (SMILES)
Active | Active |  | CN(C)c1ccc2c(-c3ccc(C(=O)NCc4cccc5c4C(C)(C)C4(C=Nc6c(ccc7ccccc67)O4)N5C)cc3C(=O)[O-])c3ccc(=[N+](C)C)cc-3oc2c1 (centres undefined)
Active |  |  | CN(C)c1ccc2c(-c3ccc(C(=O)NC(CCCCNC(=O)CCCc4ccc5c(c4)C(C)(C)C4(C=Nc6c(ccc7ccccc67)O4)N5C)C(=O)O)cc3C(=O)[O-])c3ccc(=[N+](C)C)cc-3oc2c1 (centres undefined)
Active |  |  | CN(C)c1ccc2c(-c3ccc(C(=O)NCCCOc4ccc5ccc6c(c5c4)N=CC4(O6)N(C)c5ccc(CCCC(=O)ON6C(=O)CCC6=O)cc5C4(C)C)cc3C(=O)[O-])c3ccc(=[N+](C)C)cc-3oc2c1 (centres undefined)

Continued, molecule first:

Structure (SMILES) | Drug uptake [1] | Drug uptake [2] | Drug uptake [3]
CN(C)c1ccc2c(-c3ccc(C(=O)NCCCOc4ccc5ccc6c(c5c4)N=CC4(O6)N(CCCCCC(=O)ON5C(=O)CCC5=O)c5ccccc5C4(C)C)cc3C(=O)[O-])c3ccc(=[N+](C)C)cc-3oc2c1 (centres undefined) | Active |  | 
CN(C)c1ccc2c(-c3ccc(C(=O)NCc4cccc5c4C(C)(C)C4(C=Nc6c(ccc7ccc(O)cc67)O4)N5C)cc3C(=O)[O-])c3ccc(=[N+](C)C)cc-3oc2c1 (centres undefined) | Active |  | 
COc1ccc2ccc3c(c2c1)N=CC1(O3)N(C)c2cccc(CNC(=O)c3ccc(-c4c5ccc(=[N+](C)C)cc-5oc5cc(N(C)C)ccc45)c(C(=O)[O-])c3)c2C1(C)C (centres undefined) | Active |  | Active
CN(C)c1ccc2c(-c3ccc(C(=O)NCCc4ccc5c(c4)C(C)(C)C4(C=Nc6c(ccc7ccccc67)O4)N5C)cc3C(=O)[O-])c3ccc(=[N+](C)C)cc-3oc2c1 (centres undefined) | Active |  | 
